From patent US6838574B1, “Dicarba-closo-dodecarborane derivatives” (Institute of Medicinal Molecular Design, Inc., priority 1999, dated 2005)

Key:
Format in all cases: cell-based
[1] = target: T1, rat estrogen receptor (pCI-rER α) (Rattus norvegicus, UniProt P06211); test: Antiestrogenic activity, luciferase reporter gene assay with coexisting β-estradiol; details: for IC50: coexisting β-estradiol 1 × 10^−9M
T1 construct: expressed in transfected cells; host or cells: COS-1 cells
T1 sequence (P06211 1-600): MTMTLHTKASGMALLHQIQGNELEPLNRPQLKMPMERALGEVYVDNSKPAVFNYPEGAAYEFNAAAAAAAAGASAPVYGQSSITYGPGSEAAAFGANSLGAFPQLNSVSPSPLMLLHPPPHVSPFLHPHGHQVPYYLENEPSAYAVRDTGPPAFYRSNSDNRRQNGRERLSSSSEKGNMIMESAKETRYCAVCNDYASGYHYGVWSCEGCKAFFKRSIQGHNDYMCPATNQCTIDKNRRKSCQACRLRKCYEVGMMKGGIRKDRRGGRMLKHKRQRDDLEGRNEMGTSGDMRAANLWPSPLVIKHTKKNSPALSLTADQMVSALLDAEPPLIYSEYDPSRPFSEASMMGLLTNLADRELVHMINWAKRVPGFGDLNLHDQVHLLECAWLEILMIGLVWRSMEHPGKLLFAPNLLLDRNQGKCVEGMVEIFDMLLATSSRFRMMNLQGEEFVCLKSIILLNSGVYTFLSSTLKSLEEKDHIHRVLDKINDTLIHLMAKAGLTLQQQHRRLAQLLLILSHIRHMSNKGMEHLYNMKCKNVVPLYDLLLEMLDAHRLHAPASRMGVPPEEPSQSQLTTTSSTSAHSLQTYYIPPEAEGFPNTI
Description: As estrogenic activity, estrogen receptor-dependent transcriptional activation abilities of the test compounds were determined by the r porter gene assay using luciferase gene. COS-1 cells were cultured using a DMEM medium containing an antibiotics and 5% bovine fetal serum in the wells of 24 well plates (cell density: 5 to 6×10^4/well) at 37° C. for one night under 5% carbon dioxide. On the next day, the medium was changed to DMEM medium not containing Phenol Red. Using gene introducing reagent Tfx-20 (Promega), reporter plasmid EREx3-pGL-TK, in which rat estrogen receptor expression plasmid pCI-rER α and an estrogen responsive sequence were placed upstream of the luciferase gene, and β-galactosidase expression plasmid pCMV β used as an internal standard were introduced into cells. The cells were cultured for 2 h, and the medium was changed to DMEM not containing Phenol Red but containing active charcoal-treated serum.
The culture was added with each test compound dissolved in ethanol at various concentrations (final ethanol concentration at 0.5%) and then cultivation was continued at 37° C. for one night under 5% carbon dioxide. On the next day, the cells were lysed and enzymatic activity of luciferase expressed was measured by using a chemiluminometer. The values were standardized based on galactocidase enzymatic activity, and then compared with the values obtained by experiments using no test compound and used as values of activity at various concentrations. […] The estrogenic activities in the table are shown as concentrations for 50% activity (EC50 values) which give 50% activities relative to luciferase activity regarded as 100 that is expressed by treatment with the control compound β-estradiol at 10 nM. Each compound tested in this experiment has a high estrogenic activity.
As antiestrogenic activities, estrogen receptor-dependent transcriptional activation abilities of the test compounds were measured by the reporter gene assay using luciferase gene in the same manner as the estrogen activity measurement. In Table 7, antiestrogenic activities of test compounds are indicated as IC50 values as 50% inhibitory concentrations relative to the luciferase activity regarded as 100 which is expressed by β-estradiol at 1 nM coexisting in the experimental system. Each compound tested in this experiment has antiestrogenic activity.

[2] = test system: human promyelocytic leukemia cell strain HL-60; test: HL-60 differentiation induction, test compound alone; details: for percentage of differentiated cells, no coexisting compound: HL-60, 4 days, control <10; for differentiation inducing activity at low concentration (in words): 0.01 μM test compound; for differentiation inducing activity at low concentration (in words) / differentiation inducing activity (in words): HL-60; for differentiation inducing activity (in words): test compound alone
Description: Inhibitory activity against proliferation of human promyelocytic leukemia cell strain HL-60 was evaluated an index of anti-leukemia activity. Subcultured HL-60 cells were seeded with the initial cell number of 8×10^4 cells/ml in the RPMI 1640 medium containing bovine fetal serum and an antibiotics. Each test compound was added at various concentrations and the mixture was cultured at 37° C. Four days later, cell number was counted. Anti-leukemia activity of each test compound was shown in the tables as percentage values of differentiated cells, which cells were not differentiated in the absence of the test drug, […] observation and NBT reducing ability of the cells as indexes.

[3] = test system: human promyelocytic leukemia cell strain HL-60; test: HL-60 differentiation with coexisting differentiation inducer Am80 (anti-differentiation activity); details: for percentage of differentiated cells, coexisting compound Am80: coexisting Am80 3.3 × 10^−10M, control 55
[4] = test system: human promyelocytic leukemia cell strain HL-60; test: HL-60 differentiation with coexisting HX630 (enhancer of differentiation inducers); details: for percentage of differentiated cells, coexisting compound HX630: coexisting HX630 1 × 10^−7M, control <10; for differentiation inducing activity with HX630 (in words): coexisting HX630 (Table 3)
[5] = test compound 1 μM, morphology and NBT reducing ability
[6] = coexisting Am80 1×10^−9 M (Table 4)

## 1-(2-hydroxyphenyl)-12-(3-dimethylaminoethoxyphenyl)-1,12-dicarba-closo-dodecaborane [BR172]
[1]
  IC50: 600 nM

## 1-(3-hydroxyphenyl)-7-(3-dimethylaminoethoxyphenyl)-1,7-dicarba-closo-dodecaborane [BR272]
[1]
  IC50: 500 nM

## 4-[[3-(1,2-Dicarba-closo-dodecaboran-1-yl)phenyl]carboxamide]benzoic acid [BR350]
[2]; [5]
  percentage of differentiated cells, no coexisting compound: 11%
[3]; HL-60
  percentage of differentiated cells, coexisting compound Am80: 60%
[4]; HL-60
  percentage of differentiated cells, coexisting compound HX630: 48%
[4]
  differentiation inducing activity with HX630 (in words): differentiation inducing activities

## 1-(4-hydroxyphenyl)-12-(4-dimethylaminoethoxyphenyl)-1,12-dicarba-closo-dodecaborane [BR162]
[1]
  IC50: 10 nM

## 1-(4-hydroxyphenyl)-7-(4-dimethylaminoethoxyphenyl)-1,7-dicarba-closo-dodecaborane [BR262]
[1]
  IC50: 200 nM

## CC1(C)CCC(C)(C)c2cc(NC(=O)c3ccc(C(=O)O)cc3)ccc21 [Am80, 4-[(5,6,7,8-tetrahydro-5,5,8,8-tetramethyl-2-naphthalenyl)carbamoyl]benzoic acid, reference compound]
[3]; Am80 3.3 × 10^−10M alone, HL-60
  percentage of differentiated cells, control (Am80 without test compound): Am80 3.3 × 10^−10M (control: 55) %

## 4-[4-(2-methyl-1,2-dicarba-closo-dodecaboran-1-yl)-phenylcarbamoyl]benzoic acid [BR201]
[2]; [5]
  percentage of differentiated cells, no coexisting compound: 11%
[3]; HL-60
  percentage of differentiated cells, coexisting compound Am80: 5%
[3]; coexisting Am80 (Table 2)
  anti-differentiation activity (in words): strong anti-differentiation activity
[4]; HL-60
  percentage of differentiated cells, coexisting compound HX630: 12%

## 1-(3-hydroxyphenyl)-2-(3-dimethylaminoethoxyphenyl)-1,2-dicarba-closo-dodecaborane [BR372]
[1]
  IC50: 200 nM

## 4-[4-(2-methyl-1,2-dicarba-closo-dodecaboran-1-yl) phenylamino]benzoic acid [BR401]
[2]
  differentiation inducing activity at low concentration (in words): activities were maintained
  differentiation inducing activity (in words): strong differentiation inducing activities
[2]; test compound 0.01 μM
  percentage of differentiated cells, no coexisting compound: 26%
[2]; [5]
  percentage of differentiated cells, no coexisting compound: 70%
[3]; HL-60
  percentage of differentiated cells, coexisting compound Am80: 60%
[4]; HL-60
  percentage of differentiated cells, coexisting compound HX630: 75%

## 4-[3-(2-methyl-1,2-dicarba-closo-dodecaboran-1-yl)phenylcarbamoyl]benzoic acid [BR251]
[2]; [5]
  percentage of differentiated cells, no coexisting compound: 8%
[3]; HL-60
  percentage of differentiated cells, coexisting compound Am80: 55%
[4]; HL-60
  percentage of differentiated cells, coexisting compound HX630: 77%
[4]
  differentiation inducing activity with HX630 (in words): differentiation inducing activities

## CC1(C)CCC(C)(C)c2cc3c(cc21)Sc1ccccc1N=C3c1ccc(C(=O)O)cc1 [HX630, 4-[2,3-(2,5-dimethyl-2,5-hexano)dibenzo-[b,f]-[1,4]thiazepin-11-yl]benzoic acid, reference compound]
[4]; HX630 1 × 10^−7M alone, HL-60
  percentage of differentiated cells, control (HX630 without test compound): HX630 1 × 10^−7M (control: <10) %

## 4-[2-(1,2-dicarba-closo-dododecaboran-1-yl)-(E)-ethenylcarboxamide]benzoic acid [BR110]
[2]; [5]
  percentage of differentiated cells, no coexisting compound: 12%
[3]; HL-60
  percentage of differentiated cells, coexisting compound Am80: 60%
[4]; HL-60
  percentage of differentiated cells, coexisting compound HX630: 48%
[4]
  differentiation inducing activity with HX630 (in words): differentiation inducing activities

## 4-{[4-(1,2-dicarba-closo-dodecaboran-1-yl)phenyl]carboxamide}benzoic acid [BR300]
[2]; [5]
  percentage of differentiated cells, no coexisting compound: 6%
[3]; HL-60
  percentage of differentiated cells, coexisting compound Am80: 37%
[4]; HL-60
  percentage of differentiated cells, coexisting compound HX630: 8%

## 1-(4-hydroxyphenyl)-2(4-dimethylamino-ethoxyphenyl)-1,2-dicarba-closo-dodecaborane [BR362]
[1]; coexisting β-estradiol 1 nM, tamoxifen as control
  antiestrogenic activity (in words): strong activity comparable to that of antiestrogenic drug tamoxifen
[1]
  IC50: 30 nM

## 4-(2,3,4,5,6,7,8,9,10,11-decamethyl-1,12-dicarba-closo-dodecaborane-1-carbonylamino) benzoic acid [BR630]
[3]; [6]
  anti-differentiation activity (in words): remarkable anti-differentiation activities

## 4-[3-(2-propyl-1,2-dicarba-closo-dodecaboran-1-yl)phenylamino]benzoic acid [BR453]
[2]
  differentiation inducing activity at low concentration (in words): activities were maintained
  differentiation inducing activity (in words): strong differentiation inducing activities
[2]; test compound 0.01 μM
  percentage of differentiated cells, no coexisting compound: 80%
[2]; [5]
  percentage of differentiated cells, no coexisting compound: 80%

## 4-(2,3,4,5,6,7,8,9,10,11-decamethyl-1,12-dicarba-closo-dodecaborane-1-carbonylamino) benzoic acid [BR635]
[3]; [6]
  anti-differentiation activity (in words): remarkable anti-differentiation activities

## 4-{N-methyl-[2-methyl-4-(2-methyl-1,2-dicarba-closo-dodecaboran-1-yl)]phenylamino}benzoic acid [BR431]
[2]; [5]
  percentage of differentiated cells, no coexisting compound: 10%
[3]; HL-60
  percentage of differentiated cells, coexisting compound Am80: 55%
[4]; HL-60
  percentage of differentiated cells, coexisting compound HX630: 12%
